# Key:
# [1] = Physical appearance in open containers at ambient conditions; assay type: physicochemical
# Source text: The appearances for the granular compositions prepared according to the present invention were investigated in open containers at ambient conditions.
# (§1) It has been observed that the granular compositions according to the present inventions are dry solids as evidenced by the appearance. […] Further, the granules were appeared as dry solids after 6 months of storage. The inventors of the present invention confirmed the stability of the granules by investigating the weight gain of the compositions and by calculating the relative weight gain with respect to glufosinate salt. The weight gain of the granular compositions according to the present invention were investigated at 30° C. and 60% humidity as per ASTM (1996) method and the results are summarized in the below table (Table 3).
# [2] = Weight gain (uptake of moisture) at 30° C. and 60% humidity as per ASTM (1996) method; assay type: physicochemical
# Source text: as §1
# Relative % weight gain of the composition is calculated using the formula given below:
# [formula] [formula] • wherein X is glufosinate ammonium technical
compound,measurement,setting,value
"CP(=O)(O)CCC(N)C(=O)O (stereo not shown) [Glufosinate ammonium, 2-amino-4-[hydroxy(methyl)phosphinoyl]butyric acid]",Appearance at 0 hrs,[1]; 0 hrs,Dry solid
same,Appearance After 24 hrs,[1]; 24 hrs,Wet solid
same,Appearance After 72 hrs,[1]; 72 hrs,Liquid
same,% weight gain after 24 hrs,[2]; 24 hrs,1.834%
same,Weight of sample after 24 hrs,[2]; 24 hrs,1.0219 g
same,Relative % weight gain after 24 hrs,"[2]; 24 hrs, relative to glufosinate ammonium technical",100%
same,Weight of sample,[2]; start,1.0035 g

# From patent US10925280B2, “Solid agrochemical compositions” (UPL LIMITED, priority 2015, dated 2021)
